Experiments:
in vivo = details: nude (nu/nu), mouse, 180 mg/kg/day
Method: The fluconazole dose approximately corresponded to a human equivalent dose of 100 mg/day for a 70 kg human. […] These doses are within the standard range of human treatment doses for both of these antifungal agents. Animals were sacrificed four hours after the last drug dosing and levels of fenretinide measured in the plasma by a HPLC methodology.

[1] = nude mice bearing SMS-KCNR xenografts; ketoconazole 50 mg/kg/day, nine doses, starting two days prior to fenretinide 180 mg/kg/day, five doses
[2] = Effect of various dosages of ketoconazole on fenretinide levels in mouse plasma (Example 3, HPLC); format: in vivo; details: NOD/SCID mice; ketoconazole 37, 75 or 150 mg/kg/day, nine doses, starting two days prior to fenretinide 180 mg/kg/day, five doses; all dose levels, P<0.05
Description: Animals were sacrificed four hours after the last drug dosing and levels of fenretinide measured in the blood plasma by a HPLC methodology.

| concentration at 4 h (in vivo) | effect on fenretinide levels in tumor tissue [1] | effect on mean fenretinide level in plasma compared to controls [2] | Structure (SMILES) |
| --- | --- | --- | --- |
| 12.6 µM |  |  | CC1=C(/C=C/C(C)=C/C=C/C(C)=C/C(=O)Nc2ccc(O)cc2)C(C)(C)CCC1 [fenretinide, N-(4-hydrophenyl) retinamide] |
|  | increased | significantly increased | CC(=O)N1CCN(c2ccc(OCC3COC(Cn4ccnc4)(c4ccc(Cl)cc4Cl)O3)cc2)CC1 (stereo not drawn) [ketoconazole] |
